According to patent US7229826B2, “Process for ex vivo formation of mammalian bone and uses thereof” (The Regents of the University of Michigan, priority 1999, dated 2007):
Entries after “also recorded” stand apart in the source; their conditions may differ.

Legend:
Format in all cases: cell-based
[1] = test system: human osteogenic cells (MG63, HBPC, primary osteoblasts); assay: TGF-β1-induced bone cell spheroid formation in serum-free culture; conditions: 200 pM TGF-β1, serum-free, immediately following trypsinization
Procedure: Culture of Osteogenic Cells and Cell Lines. Osteogenic cell lines such as human osteosarcoma cells (MG63) were cultured in RPMI 1640 (Gibco, Grand Island. N.Y.) containing 2 mM L-Glutamine, sodium pyruvate and 10% Fetal Calf Serun (FCS) (Hyclone Labs Inc., Logan, Utah). For bone cell spheroid formation, cells were grown to confluency, trypsinized, washed two times in RPMI, and immediately cultured in serum-free media containing 1% ITS+ (Collaborative Research Inc.) and 200 pM TGF-β1 (Collaborative). Unless otherwise noted, cells are plated at a density of about 10^3 to 10^6 cells/cm^2 in tissue culture dishes. Control cells were allowed to adhere to plastic for 3–4 hours in serum containing medium following trypsinization. This adherent cell layer was then washed twice with serum-free medium and cultured as above with or without TGF-β1.
Bone Cell-Spheroid Formation. In order to induce three-dimensional cell development (i.e., bone cell spheroids), cells were trypsinized as routinely performed for passage, the trypsin inactivated by serum addition, the cells washed three times, and immediately cultures in RPMI/ITS^+ (see above) containing 200 pM TGF-β1, Control cells were allowed to adhere to plastic for 3–4 hours in serum containing medium following trypsinization. This adherent cell layer was then washed twice with serum-free medium and cultured as above with or without TGF-β1.

[2] = test system: primary osteoblasts isolated from human bone; assay: Collagen synthesis by 3H-proline incorporation, delayed reduction electrophoresis; conditions: densitometry
Procedure: Collagen Synthesis. At the times indicated, bone cell-spheroids were washed with prolene-free DMEM containing 1% ITS, and incubated for 12 hours in the presence of ITS^+ and 100 μCi/ml (^3H) Proline (Amersham). Cells and medium were harvested, and cell lysates were made. Protein content was estimated by the BCA method (Smith, 1985), using a kit from Pierce (Rockford, Ill.). The cell lysates were lyophilized and extracted overnight at 4° C. with 0.5M acetic acid containing 100 μg/ml pepsin (Sigma Chemical Co., St. Louis, Mo.). Samples were dried, dissolved in non-reducing SDS-gel buffer and analyzed on a 5% SDS-gel. The αl(1) and αl(111) components were resolved by delayed reduction electrophoresis (Sykes, 1976). The gels were treated with Amplify (Amersham, England), and the radiolabeled collagen visualized by autoradiography. The percentage of Type I collagen was determined using the following formula (Franceschi, 1988).

[3] = test system: human osteogenic cells (MG63, HBPC, primary osteoblasts); assay: Western analysis of bone protein expression in spheroids; conditions: each osteogenic cell type; versus serum-free cells in the absence of TGF-β1
Procedure: Western Analysis. The procedure used was essentially that of Towbin (1979). Samples were run on a 10% SDS-PAGE. The electrophoretically resolved proteins were transferred to nitrocellulose (Schleicher & Schuell; Keene, N.H.) and the nonspecific binding sites blocked using 5% Skim milk in TBST (10 mM Tris, 0.15M NaCl, 0.05% Tween 20, pH 7.5). The nitrocellulose membrane was incubated with primary antibodies: anti-Osteonectin (ON), anti-alkaline phosphatase, (both generous gifts of Dr. Kenneth Mann, University of Vermont) or anti-Type I collagen (Collaborative); each at 10 μg/ml in TBST) for 1 hour at room temperature, washed with TBST and treated with the secondary antibody (anti-mouse IgG-HRP conjugated; Amersham) at a 1:1000 dilution in the same buffer. The HRP/anitbody-labeled proteins were visualized by enhanced chemilluminescence (Pierce).

[4] = test system: murine LTBMC (unfractionated bone marrow); assay: Murine long-term bone marrow culture (LTBMC) osteogenesis, von Kossa / Masson positive foci and microspicules
Source text: The inventors therefore established murine LTBMC and probed their capacity to express markers of osteogenesis. […] Additionally, they have developed a smaller culture volume system (dropping from 100 -mm tissue culture dishes to 35 mm ones) to allow better utilization of human osteoblasts. Using this modification on murine cells (which respond less robustly to TGF-β as a solitary cytokine), the inventors examined the role of IGF in modulating this process.
Endothelial cells are important sources of cytokines for both hematopoietic and osteogenesis cells. An important regulator of endothelial cells, VEGF, is known to affect both endothelial cells, and bone cell development (although it is not clear if the latter is a direct effect).

[5] = test system: human osteogenic cells (MG63, HBPC, primary osteoblasts); assay: Inhibition of cell condensation (bone cell spheroid and microspicule formation); conditions: EGTA 0.5 mM; puromycin 5 μM; spheroid-forming conditions with TGF-β1
Procedure: Inhibition of Cell Condensation. Cells were cultured in serum-free media under conditions that establish bone cell spheroids (as described above) in the presence of neutralizing antibodies to α2, α3, and/or β1 integrins, at 10 μg/ml. Isotype-specific inappropriate antibodies served as negative controls. Antibodies were added every second day over a seven-day culture period. EGTA (0.5 mM) was also used inhibition of cell aggregation, as was puromycin (5 μM).

Compound: TGF-β1: multifunctional cytokine of the TGF-β family, osteogenic growth factor used at 200 pM (human) or 25 pM (murine)
- time to formation of three-dimensional spherical cellular condensates (cell spheroids) [1]: 24 to 48 h
- increase in collagen synthesis on TGF-β1-dependent spheroid formation [2]: two to three fold increase
- expression of osteonectin and alkaline phosphatase [3]: markedly increases
- capacity to drive murine osteogenesis (individually) ([4]; TGF-b 25 pM, IGF 15 pM, each alone): little capacity

Compound: VEGF
- increase in number of von Kossa cellular foci ([4]; VEGF 10 ng/mL): 2.5 fold
- increase in number of collagen-positive and von Kossa-positive developmental foci per culture ([4]; VEGF 10 ng/mL added to LTBMC): 75–80%
- increase in number of microspicules per culture ([4]; VEGF 10 ng/mL, over the first three weeks of culture): ~5 fold

Compound: COc1ccc(C[C@H](N)C(=O)N[C@H]2[C@@H](O)[C@H](n3cnc4c(N(C)C)ncnc43)O[C@@H]2CO)cc1 [puromycin]
- spheroid formation (effect in words) [5]: completely blocked; also recorded: completely inhibited

Compound: O=C(O)CN(CCOCCOCCN(CC(=O)O)CC(=O)O)CC(=O)O [EGTA]
- spheroid formation (effect in words) [5]: completely inhibited
